Measurements taken from US20080207522A1, “Antimicrobial Peptides” (priority 2004, published 2008).
Read-outs that look alike come from different tables or passages of the source. Ends that are not written are not given here.

Legend:
[1] = tested on: Candida albicans
Experimental: (§1) Minimal inhibitory concentration (MIC) determination. The MICs of the peptides were measured using a modified broth microdilution method in Mueller Hinton (MH) medium. Wu et al., J. Biol. Chem. 274: 29-35, 1999. Briefly, the peptides were dissolved and stored in glass vials. The assay was performed in sterile 96-well polypropylene microtitre plates were used. Serial dilutions of the peptides to be assayed were performed in 0.01% acetic acid (Fisher) containing 0.2% bovine serum albumin (Boehringer Mannheim GmbH) at 10× the desired final concentration. Ten microlitres of the 10× peptides were added to each well of a 96-well polypropylene plate containing 90 μl of MH media per well. Bacteria were added to the plate from an overnight culture at 2-7×10^5 colony forming units/ml and incubated over night at 37° C. The MIC was taken as the concentration at which no growth was observed.
(§2) Strains. For the killing assay a mini-Tn5-lux mutant in Pseudomonas aeruginosa H103 was used. The strain is called H1001 and contains a fliC::luxCDABE transcriptional fusion resulting in constitutive expression of luciferase. The bacterial strains used for the antimicrobial activity assays included Escherichia coli UB1005 (F-, nalA37, metB1), a wild-type Salmonella enterica ssp. Typhimurium (S. Typhimurium), wild-type Pseudomonas aeruginosa PAO1 strain H103, Enterococcus faecalis ATCC29212, Staphylococcus aureus ATCC25923, and a clinical isolate of Staphylococcus epidermidis obtained from Dr. D. Speert (Department of Medicine, University of British Columbia). Antifungal activity was tested using a lab isolate of Candida albicans obtained from Dr. B. Dill (Department of Microbiology and Immunology, University of British Columbia).
(§3) In addition, the parent peptide Bac2A was included in these studies as a standard. The minimal inhibitory concentrations (MIC) were determined for the important medical pathogens Pseudomonas aeruginosa, Escherichia coli, Salmonella typhimurium, Staphylococcus aureus, Staphylococcus epidermidis, Enterococcus faecaelis, and the yeast Candida albicans in Mueller-Hinton media.

[2] = tested on: Enterococcus faecalis ATCC29212
Experimental: as §1, §2, §3

[3] = tested on: Escherichia coli UB1005; details: Table 6
Experimental: as §1, §2, §3

[4] = tested on: Pseudomonas aeruginosa PAO1 strain H103; details: for MIC P. aerug: Table 6; for MIC P. aeruginosa / MIC P. aeruginosa Muller Hinton Media / MIC P. aeruginosa With 10 μM Mg / MIC P. aeruginosa With 2 mM Mg: PAO1
Experimental: as §1, §2, §3

[5] = tested on: Salmonella enterica ssp. Typhimurium; details: for MIC S. Typhim.: Table 6; for MIC S. typhimurium: ssp. Typhimurium
Experimental: as §1, §2, §3

[6] = tested on: Staphylococcus aureus ATCC25923
Experimental: as §1, §2, §3

[7] = tested on: Staphylococcus epidermidis; details: for MIC S. epi.: Table 6
Experimental: as §1, §2, §3

[8] = tested on: Pseudomonas aeruginosa strain H1001; experiment: Assay for the cleaved (free, soluble) peptides from cellulose support, luminescence killing assay; type: cell-based; design: key: 1: Peptides showing stronger killing than Bac2A at a 4 to 8-fold higher dilution; Peptides showing stronger killing compared to that of Bac2A at a 4-fold higher dilution; 3: Peptides similar to Bac2A; 4: Peptides similar to Bac2A at the highest concentration but demonstrating weaker killing at a 2-fold dilution; 5: Peptides giving very weak or no killing at a 2-fold dilution; 6: Peptides with weak killing activity at the highest concentration; details: for Soluble Class: Table 5, free peptides; for Activity Class Soluble: free (cleaved) peptides, killing relative to Bac2A
How it was run: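 Cellulose-synthesized peptides (amidated C-terminus, two β-alanines) cleaved by ammonia, released from punched spots 30 min at 37 °C, then serially diluted. P. aeruginosa H1001 (constitutive fliC::luxCDABE) overnight culture diluted 1:500 in LB or 100 mM Tris pH 7.3/20 mM glucose. Killing followed as time-dependent luminescence loss at 37 °C.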

[9] = tested on: Pseudomonas aeruginosa strain H1001 fliC::luxCDABE; experiment: Luminescence-based assay for the non-cleaved (bound) peptides on cellulose membranes; type: cell-based; details: for Luminescence at the given time in minutes: 0 / Luminescence at the given time in minutes: 20 / Luminescence at the given time in minutes: 40 / Luminescence at the given time in minutes: 60 / Luminescence at the given time in minutes: 80 / Luminescence at the given time in minutes: 100 / Luminescence at the given time in minutes: 120 / Luminescence at the given time in minutes: 180 / Luminescence at the given time in minutes: 240: cellulose-bound peptide; for Luminescence at the given time in minutes: 0: 0 min; for Luminescence at the given time in minutes: 20: 20 min; for Luminescence at the given time in minutes: 40: 40 min; for Luminescence at the given time in minutes: 60: 60 min; for Luminescence at the given time in minutes: 80: 80 min; for Luminescence at the given time in minutes: 100: 100 min; for Luminescence at the given time in minutes: 120: 120 min; for Luminescence at the given time in minutes: 180: 180 min; for Luminescence at the given time in minutes: 240: 240 min; for Activity Class bound: uncleaved cellulose-bound peptides
How it was run: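 Peptides remained bound to cellulose spots, which were ethanol-washed and equilibrated in 100 mM Tris pH 7.3. Constitutively lux-expressing P. aeruginosa (OD600 0.35 culture diluted 1:25) added in 10 mM Tris-HCl pH 7.3, 20 mM glucose at 37° C. Luminescence (RLU) followed over 14 time points; peptides binned into six activity classes.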

Bac109: peptide of Table 6 (substitution peptides and truncation variants of Bac2A); sequence in Table 1 (RIVVIRVAR)
MIC C. albicans ([1]; Table 6): n.s. | MIC E. faecalis ([2]; Table 6): n.s. | MIC E. coli [3]: n.s. | MIC P. aerug [4]: n.s. | MIC S. Typhim. [5]: n.s. | MIC S. aureus ([6]; Table 6): n.s. | MIC S. epi. [7]: n.s.

Bac112: peptide of Table 6 (substitution peptides and truncation variants of Bac2A); sequence in Table 1 (ARIVVIRV)
MIC C. albicans ([1]; Table 6): n.s. | MIC E. faecalis ([2]; Table 6): n.s. | MIC E. coli [3]: n.s. | MIC P. aerug [4]: n.s. | MIC S. Typhim. [5]: n.s. | MIC S. aureus ([6]; Table 6): n.s. | MIC S. epi. [7]: n.s.

Bac118: peptide of Table 6 (substitution peptides and truncation variants of Bac2A); sequence in Table 1 (RIVVIRV)
MIC C. albicans ([1]; Table 6): n.s. | MIC E. faecalis ([2]; Table 6): n.s. | MIC E. coli [3]: n.s. | MIC P. aerug [4]: n.s. | MIC S. Typhim. [5]: n.s. | MIC S. aureus ([6]; Table 6): n.s. | MIC S. epi. [7]: n.s.

Bac241: peptide of Table 6 (substitution peptides and truncation variants of Bac2A); sequence in Table 1 (RLERIVVIRVAR)
MIC C. albicans ([1]; Table 6): n.s. | MIC E. faecalis ([2]; Table 6): n.s. | MIC E. coli [3]: n.s. | MIC P. aerug [4]: n.s. | MIC S. Typhim. [5]: n.s. | MIC S. aureus ([6]; Table 6): n.s. | MIC S. epi. [7]: n.s.

Bac263: peptide of Table 6 (substitution peptides and truncation variants of Bac2A); sequence in Table 1 (RLAGIVVIRVAR)
MIC C. albicans ([1]; Table 6): n.s. | MIC E. faecalis ([2]; Table 6): n.s. | MIC E. coli [3]: n.s. | MIC P. aerug [4]: n.s. | MIC S. Typhim. [5]: n.s. | MIC S. aureus ([6]; Table 6): n.s. | MIC S. epi. [7]: n.s.

Bac297: peptide of Table 6 (substitution peptides and truncation variants of Bac2A); sequence in Table 1 (RLARICVIRVAR)
MIC C. albicans ([1]; Table 6): n.s. | MIC E. faecalis ([2]; Table 6): n.s. | MIC E. coli [3]: n.s. | MIC P. aerug [4]: n.s. | MIC S. Typhim. [5]: n.s. | MIC S. aureus ([6]; Table 6): n.s. | MIC S. epi. [7]: n.s.

VIRRRRILAAVV-NH2 (C-terminus assumed) [Bac044]
Soluble Class [8]: 6 | Activity Class Soluble [8]: 6 | Luminescence at the given time in minutes: 0 [9]: 5592 RLU | Luminescence at the given time in minutes: 20 [9]: 7069 RLU | Luminescence at the given time in minutes: 40 [9]: 5932 RLU | Luminescence at the given time in minutes: 60 [9]: 5652 RLU | Luminescence at the given time in minutes: 80 [9]: 5206 RLU | Luminescence at the given time in minutes: 100 [9]: 5008 RLU | Luminescence at the given time in minutes: 120 [9]: 4999 RLU | Luminescence at the given time in minutes: 180 [9]: 5060 RLU | Luminescence at the given time in minutes: 240 [9]: 5195 RLU | Activity Class bound [9]: 6 (Peptides having residual luminescence (lux) values greater than 3000 after 240 min.) | MIC C. albicans [1]: 136 µg/mL | MIC E. faecalis ([2]; ATCC29212): > 272 µg/mL | MIC P. aeruginosa [4]: > 250 µg/mL | MIC P. aeruginosa Muller Hinton Media [4]: >250 µg/mL | MIC P. aeruginosa With 10 μM Mg [4]: 250 µg/mL | MIC P. aeruginosa With 2 mM Mg [4]: >250 µg/mL | MIC S. typhimurium [5]: 113 µg/mL | MIC S. aureus ([6]; ATCC25923): 250 µg/mL | MIC S. epidermidis [7]: 113 µg/mL

VRLRIRVAVIRA-NH2 (C-terminus assumed) [Bac034]
Soluble Class [8]: 1 | Activity Class Soluble [8]: 1 | Luminescence at the given time in minutes: 0 [9]: 5305 RLU | Luminescence at the given time in minutes: 20 [9]: 6449 RLU | Luminescence at the given time in minutes: 40 [9]: 4160 RLU | Luminescence at the given time in minutes: 60 [9]: 1454 RLU | Luminescence at the given time in minutes: 80 [9]: 390 RLU | Luminescence at the given time in minutes: 100 [9]: 157 RLU | Luminescence at the given time in minutes: 120 [9]: 64 RLU | Luminescence at the given time in minutes: 180 [9]: 60 RLU | Luminescence at the given time in minutes: 240 [9]: 63 RLU | Activity Class bound [9]: 3 (Peptides similar to Bac2A resulting in lux values of less than 500 after 240 min.) | MIC C. albicans [1]: 8 µg/mL | MIC E. faecalis ([2]; ATCC29212): 11 µg/mL | MIC P. aeruginosa [4]: 10 µg/mL | MIC P. aeruginosa Muller Hinton Media [4]: 10 µg/mL | MIC P. aeruginosa With 10 μM Mg [4]: 4 µg/mL | MIC P. aeruginosa With 2 mM Mg [4]: 16 µg/mL | MIC S. typhimurium [5]: 6 µg/mL | MIC S. aureus ([6]; ATCC25923): 5 µg/mL | MIC S. epidermidis [7]: 4 µg/mL
